Data: patent US20250188162A1, “INHIBITOR OF INTERLEUKIN-1 RECEPTOR TYPE 1 FOR USE IN THE TREATMENT OF CANCER” (Buzzard Pharmaceuticals AB, priority 2022, published 2025)

Tests used:
NF-κB [1] = assay: NF-κB ligand screen in pNGL-expressing RAW264.7 macrophages; assay type: cell-based, murine; conditions: recombinant VCAN 1 nM, compared with LPS 1 μg/mL
Text: (§1) FIG. 4. Tumor-secreted versican drives macrophage IKKβ, metastasis, and is a cancer biomarker. (A-E) Kras-mutant and wild-type cancer cell RNA and supernatants were subjected to microarray and LC-MSMS analyses, respectively. Shown are experimental design (A), top-20 over-represented transcripts (B) and secretory proteins (C), and Vcan/VCAN mRNA/protein expression (D, E). n=2-3/group; P, probability, two-way ANOVA; Bold letters, false discovery rate (FDR) q<0.05 compared with Kras-wild-type cells, two-stage linear step-up procedure of Benjamini, Hochberg, and Yekutieli. (F, G) Representative bioluminescent images (F) and data summary (G) from pNGL RAW264.7 cells exposed to lipopolysaccharide (LPS; 1 μg/mL) or recombinant proteins (1-2 nM). n=5/group; P, probability, two-way ANOVA; ****, P<0.0001 compared with other groups, Bonferroni post-tests. (H) Immunoblots of mouse BMDM exposed to VCAN. n=5/group. (I-M) LLC cells stably expressing control (shC) and anti-Vcan (shVcan) shRNA were validated and injected intrapleurally into NGL mice. […]
Mice were imaged for NF-κB reporter bioluminescent signal daily starting at day 10 post-tumor cell injection until sacrifice. […] Data were analyzed using Living Image v.4.2 (Perkin-Elmer, Waltham, MA) as described previously (9, 10, 15, 15, 22, 29, 39). […]

IKKβ = assay: immunoblots of mouse BMDM exposed to VCAN; assay type: cell-based; conditions: primary murine BMDM, recombinant human versican 1 nM
Text: as §1, with “mice. Shown are immunoblots (I), Vcan mRNA expression (J), and data summaries (K, L) and representative photographic and bioluminescent images (M) taken 14 days post-tumor cells. (I, J) n=5/group; (K-M) n=16/group; P, probability, unpaired Student's t-test.” for “mice.”

Kras-mutant cancer cells [2] = assay: malignant pleural effusion model of κB.luc mice with pleural LLC cells treated with Cu-CPT22; assay type: in vivo; conditions: daily intraperitoneal 20 mg/kg, 14 days post-pleural LLC cells
NF-κB [3] = assay: NF-κB reporter bioluminescence of NGL RAW264.7 macrophages pre-treated with Cu-CPT22 and exposed to VCAN; assay type: cell-based, murine; conditions: 1 nM recombinant VCAN, bioluminescence at 24 hours
RAW264.7 macrophages = assay: MTT reduction of RAW264.7 macrophages treated with Cu-CPT22; assay type: cell-based, murine; conditions: MTT reduction at 72 hours post-LPS/VCAN
[4] = 133 mg/h for 72 hours; cited from earlier work
KrasMUT tumors = assay: subcutaneous tumor growth in mice with established tumors treated with Isunakinra; assay type: in vivo; conditions: daily intraperitoneal 20 or 50 mg/Kg from 10-17 days post tumor cells; FULA1, LLC, MC38 (Kras-mutant) vs B16F10, PANO2 (WT)
Description: (§2) FIG. 6. Pharmacologic abolition of non-oncogene addiction of Kras-mutant tumors to IL-1β. […] (A) FVB (n=10) and C57BL/6 (n=45) mice received subcutaneous injections of 5×10^6 FULA1 (FVB mice) or LLC, MC38, B16F10, or PANO2 (C57BL/6 mice) cells that carry G12C, G13R, Q61R, or wild-type (WT) Kras alleles. Mice were allowed 10-17 days for tumor take, and were treated with daily intraperitoneal phosphate buffered saline (PBS) or 20 mg/Kg (LLC cells) or 50 mg/Kg (all other cells) Isunakinra until control tumor volume reached 1 cm3 (PANO2 cells) or 2 cm3 (all other cell lines). Shown are therapy (Tx) start, mouse numbers (n), tumor volume as mean (circles) and SD (bars), two-way ANOVA probability (P) for treatment effects, and average Isunakinra effect at the last time-points (%). ** and ***: P<0.01 and P<0.001, respectively, Bonferroni post-tests. (B-D) C57BL/6 mice (n=48) received intrapleural 2×10^5 LLC cells stably expressing a κB.LUC reporter (NGL), were allowed five days for tumor take, and received daily intraperitoneal PBS or 20 mg/Kg Isunakinra. Mice were sacrificed when morbid (n=17/treatment) or at day 14 post-LLC cells (n=7/treatment), after 1 mg intravenous D-luciferin and bioluminescence imaging. […]

Kras-mutant cancer cells [5] = assay: intrapleural LLC κB.LUC reporter malignant pleural effusion model treated with Isunakinra; assay type: in vivo, mice; conditions: daily intraperitoneal 20 mg/Kg from day 5 post-intrapleural LLC cells
Description: as §2

Molecule: VCAN: recombinant human active versican, TLR2 ligand glycoprotein
- macrophage NF-κB-driven transcription (NF-κB [1]): potently activates macrophage NF-κB-driven transcription to the same degree as the TLR4 ligand lipopolysaccharide (LPS)
- IKKβ induction (IKKβ): induced IKKβ in primary murine BMDM

Molecule: CCCCCCOC(=O)c1cc(O)c(=O)c2c(O)c(O)c(OC)cc2c1 [Cu-CPT22, 3,4,6-Trihydroxy-2-methoxy-5-oxo-5H-benzocycloheptene-8-carboxylic acid hexyl ester]
- VCAN-induced myeloid NF-κB activation and MPE (Kras-mutant cancer cells [2]): blocks versican (VCAN)-induced myeloid NF-κB activation and MPE of Kras-mutant cancer cells in vivo
- tumor growth in vivo (Kras-mutant cancer cells [2]): blocked tumor growth in vivo at clinically relevant concentrations
- concentration range inhibiting VCAN induced NF-κB activation (NF-κB [3]): low micromolar range
- concentration range inhibiting cellular survival (RAW264.7 macrophages): low micromolar range

Molecule: IL-1RA: IL-1 receptor antagonist protein, natural antagonist of IL-1α and IL-1β
- clinical or laboratory values [4]: no change in clinical or laboratory values

B1: Isunakinra: protein chimera of IL-1β and IL-1 receptor antagonists comprising P05 (SEQ ID NO: 5); binds IL1R1 (protein)
chain: APVRSLNCRIWDVNQKTFYLRNNQLVAGYLQGPNVNLEEKFSMSFVQGEESNDKIPVALGLKEKNLYLSCVLKDDKPTLQLESVDPKNYPKKKMEKRFVFNKIEINNKLEFESAQFPNWFLCTAMEADQPVSLTNMPDEGVMVTKFYMQFVSS
modifications: P05
- s.c. tumor growth (tumor volume) (KrasMUT tumors): specifically inhibited s.c. growth of KrasMUT tumors
- NF-κB activation in KrasMUT cancer cells in vivo (chest bioluminescence) (Kras-mutant cancer cells [5]): limited nuclear factor (NF)-κB activation in KrasMUT cancer cells in vivo
- malignant pleural effusions (MPE) (Kras-mutant cancer cells [5]): limits nuclear factor (NF)-κB activation and malignant pleural effusions (MPE) from Kras-mutant cancer cells
